The source of these data is PubChem BioAssay (NCI).

Some test systems named below: A549 NSCLC; K-562 leukemia; PC-3 prostate; SW-620 colon; SK-MEL-28 melanoma; MOLT-4 leukemia; MDA-MB-231 breast; ACHN renal; A498 renal; MDA-N; LOX IMVI melanoma; SK-MEL-2 melanoma; TK-10 renal; UO-31 renal; U251 CNS; OVCAR-3 ovarian; HS 578T breast; RPMI-8226 leukemia.
What all share (assay): DTP human tumour cell line panel, 48 h

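96-well plates; 48 h exposure; 5 concentrations. Endpoints by linear interpolation between flanking doses. Not reached: highest tested concentration assigned. TGI is the concentration that stops growth completely.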

The term TGI denotes the concentration giving total growth inhibition. Higher therefore signals less potent growth arrest. `CCCCCCCCC/C=C1\CC(CO)(COC(=O)C2CCCCC2)OC1=O` (centres undefined): the TGI in the experiment with A549 NSCLC is 48.3 µM; with K-562 leukemia it was more than 100 µM; with PC-3 prostate, 40.4 µM; in the experiment on SW-620 colon it was 33.1 µM; with SK-MEL-28 melanoma it was 30.5 µM; in the experiment on MOLT-4 leukemia, 57.6 µM. Besides, the concentration for total growth inhibition (TGI) in the experiment with MDA-MB-231 breast was 44.8 µM; in the experiment on ACHN renal, 69.1 µM; with A498 renal, 50.6 µM; in the experiment with MDA-N, 38.8 µM; in the experiment on LOX IMVI melanoma, 24 µM; with SK-MEL-2 melanoma, 43.1 µM. Moreover, the TGI is 49.8 µM in the experiment on TK-10 renal; 55.8 µM with UO-31 renal; 42.6 µM with U251 CNS; 33.4 µM in the experiment on OVCAR-3 ovarian; 41 µM in the experiment on HS 578T breast.
Regarding `NC(=O)C(c1ccccc1)N1OC2C(=O)N(c3cccc4ccccc34)C(=O)C2C1c1c2ccccc2c(Cl)c2ccccc12` (centres undefined), the TGI with A549 NSCLC was more than 50 µM; in the experiment with K-562 leukemia, more than 50 µM; in the experiment on PC-3 prostate, 18.6 µM; with SW-620 colon, more than 50 µM; in the experiment on SK-MEL-28 melanoma it was 34.6 µM; in the experiment with MOLT-4 leukemia, 9.03 µM. Besides, the total growth inhibition concentration (TGI) in the experiment on MDA-MB-231 breast is 18.8 µM; in the experiment on ACHN renal, 20.2 µM; in the experiment with A498 renal, 37.4 µM; with MDA-N, 7.88 µM; with LOX IMVI melanoma, 13.6 µM; with SK-MEL-2 melanoma, 19.6 µM. Also, the TGI in the experiment with TK-10 renal was 22.8 µM; with UO-31 renal it was 20.3 µM; in the experiment with U251 CNS, 15.9 µM; in the experiment with OVCAR-3 ovarian it was 17.5 µM; with HS 578T breast, more than 50 µM.
Regarding `COc1cc(C2c3cc4c(cc3OC(Nc3ccccc3)C2C)OCO4)cc(OC)c1OC` (centres undefined), the total growth inhibition concentration (TGI) in the experiment on A549 NSCLC, in the experiment on K-562 leukemia, in the experiment with RPMI-8226 leukemia, in the experiment on PC-3 prostate, with SW-620 colon and in the experiment on SK-MEL-28 melanoma was more than 100 µM throughout. Further, the TGI in the experiment with MOLT-4 leukemia is 8.28 µM; in the experiment with MDA-MB-231 breast, more than 52.4 µM; in the experiment with ACHN renal it was more than 61.4 µM; in the experiment with A498 renal, 1.69 µM; in the experiment with MDA-N it was 0.784 µM; in the experiment on LOX IMVI melanoma, more than 100 µM. In addition, the total growth inhibition concentration (TGI) with SK-MEL-2 melanoma was more than 100 µM; with TK-10 renal, more than 100 µM; with UO-31 renal it was more than 100 µM; in the experiment on U251 CNS it was 21.3 µM; with HS 578T breast, more than 78.5 µM.
As to `CN(C)CCCCN1c2ccccc2Sc2cc(N=[N+]=[N-])ccc21`, the TGI in the experiment with A549 NSCLC turned out to be 3.37 µM; in the experiment on RPMI-8226 leukemia, 6.06 µM; with PC-3 prostate, 4.22 µM; in the experiment on SW-620 colon, 3.56 µM; in the experiment with SK-MEL-28 melanoma, 3.3 µM; in the experiment with MOLT-4 leukemia, 4.3 µM. The TGI with MDA-MB-231 breast was 3.12 µM; with ACHN renal it was 4.5 µM; in the experiment on A498 renal it was 22.4 µM; with MDA-N it was 3.1 µM; with LOX IMVI melanoma, 3.06 µM; with SK-MEL-2 melanoma it was 3.4 µM. The TGI was 4.86 µM in the experiment with TK-10 renal; 3.66 µM in the experiment with UO-31 renal; 4.27 µM in the experiment on U251 CNS; 3.59 µM with OVCAR-3 ovarian; 9.83 µM in the experiment on HS 578T breast.
Take `COC1CC(OC2CCC3(C)C(CCC45CCC(C6=CC(=O)OC6)C(C)(CCC43)C5=O)C2)OC(C)C1O` (centres undefined): the TGI with A549 NSCLC is more than 100 µM; with K-562 leukemia, more than 100 µM; in the experiment on PC-3 prostate it was more than 100 µM; in the experiment on SW-620 colon it was more than 100 µM; in the experiment on SK-MEL-28 melanoma it was more than 100 µM; with MOLT-4 leukemia, 65.7 µM. The TGI with MDA-MB-231 breast was more than 100 µM; in the experiment with ACHN renal it was 41.1 µM; with A498 renal it was more than 100 µM; in the experiment on MDA-N, more than 100 µM; in the experiment with LOX IMVI melanoma it was more than 100 µM; with SK-MEL-2 melanoma it was more than 100 µM. In addition, the concentration for total growth inhibition (TGI) is more than 100 µM in the experiment on TK-10 renal; 35.8 µM in the experiment with UO-31 renal; more than 100 µM in the experiment on U251 CNS; 82 µM in the experiment on OVCAR-3 ovarian; more than 100 µM in the experiment with HS 578T breast.
For the compound `COC(=O)C(=O)C(C(=O)C(=O)Nc1ccccc1C(C)=O)c1nc2ccc(C(=O)c3ccccc3)cc2[nH]c1=O` (centres undefined), the total growth inhibition concentration (TGI) in the experiment on A549 NSCLC, with K-562 leukemia, with RPMI-8226 leukemia, in the experiment on PC-3 prostate, in the experiment on MOLT-4 leukemia and with MDA-MB-231 breast was more than 100 µM each time. The TGI in the experiment on ACHN renal, in the experiment with A498 renal, in the experiment with MDA-N, in the experiment on LOX IMVI melanoma, in the experiment with SK-MEL-2 melanoma and in the experiment with TK-10 renal was more than 100 µM each time. The TGI in the experiment with UO-31 renal, with OVCAR-3 ovarian and in the experiment on HS 578T breast was more than 100 µM throughout.
Take `N#CC(Nc1ccccc1)c1ccc(C(C#N)Nc2ccccc2)cc1` (centres undefined): the concentration for total growth inhibition (TGI) in the experiment on A549 NSCLC, in the experiment with K-562 leukemia, with PC-3 prostate, in the experiment with SW-620 colon, with SK-MEL-28 melanoma and with MOLT-4 leukemia was more than 100 µM throughout. The TGI in the experiment on MDA-MB-231 breast, with ACHN renal, with A498 renal, with MDA-N, in the experiment with LOX IMVI melanoma and in the experiment on SK-MEL-2 melanoma was more than 100 µM in each case. The TGI with TK-10 renal, in the experiment with UO-31 renal, with U251 CNS, with OVCAR-3 ovarian and in the experiment on HS 578T breast was more than 100 µM throughout.
Turning to `NC1=NN(c2ccccc2)C2(O)c3ccncc3C3=NN(c4ccccc4)C(=O)C132` (centres undefined), the TGI in the experiment with A549 NSCLC, with K-562 leukemia, in the experiment with RPMI-8226 leukemia, with PC-3 prostate, in the experiment with SW-620 colon and in the experiment with SK-MEL-28 melanoma was more than 100 µM throughout. Further, the TGI with MOLT-4 leukemia, with MDA-MB-231 breast, in the experiment with ACHN renal, in the experiment with A498 renal, in the experiment with MDA-N and in the experiment with LOX IMVI melanoma was more than 100 µM each time. For the same compound, the TGI with SK-MEL-2 melanoma, with UO-31 renal, in the experiment on U251 CNS, with OVCAR-3 ovarian and in the experiment on HS 578T breast was more than 100 µM in each case.
